The results in this text go back to ChEMBL document CHEMBL3988442, “University of Dundee, Small-Polar-MMV Screening Library” (2021).

Where “and” joins values, the source holds several entries; their conditions need not be identical. Equal entries are not always repeated.

This assay has as its target T1, Coenzyme A biosynthesis bifunctional protein CoaBC (Mycobacterium tuberculosis (strain ATCC 25618 / H37Rv), UniProt P9WNZ1).
T1 sequence (P9WNZ1 whole entry): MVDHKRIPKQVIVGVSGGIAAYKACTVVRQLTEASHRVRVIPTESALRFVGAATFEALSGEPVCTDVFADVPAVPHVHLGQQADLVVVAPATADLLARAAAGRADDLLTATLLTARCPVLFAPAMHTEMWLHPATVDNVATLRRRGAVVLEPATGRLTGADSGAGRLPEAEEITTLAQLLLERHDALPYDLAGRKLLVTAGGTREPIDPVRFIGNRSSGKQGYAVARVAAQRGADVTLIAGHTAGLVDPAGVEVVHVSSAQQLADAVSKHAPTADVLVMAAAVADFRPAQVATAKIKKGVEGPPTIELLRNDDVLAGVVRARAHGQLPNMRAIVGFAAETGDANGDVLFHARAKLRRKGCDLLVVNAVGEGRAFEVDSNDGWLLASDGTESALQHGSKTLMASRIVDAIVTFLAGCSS
In words: Biomol Green assay for MtCoaBC inhibitor, OD650 read. The assay is classed as functional.

One may read the IC50 as the point on the concentration scale where inhibition reaches its midpoint. Low readings indicate greater potency in that assay, high ones weaker potency in that assay. On to `O=C(CN1CCN(C(=O)c2ccccc2)CC1)Nc1ncc(Br)cc1Br`, for which the IC50 was > 30.2 µM. The figure for `COc1ccccc1CNC(=O)CS(=O)(=O)Cc1ccccc1` is > 30.2 µM; for `O=c1c2ccccc2nc2n1CCC2O` (stereo not given) it is > 30.2 µM; for `COCCCN(Cc1ccccn1)S(=O)(=O)N(C)C` it is > 30.2 µM. `Cc1ccc(S(=O)(=O)NC[C@H]2OC[C@@H](NCc3cccs3)[C@@H]2O)cc1`: the IC50 was > 30.2 µM. For `O=C1COC[C@H]([C@H](O)c2ccc(NC(=O)c3cccnc3)cc2)N1`, the IC50 is > 30.2 µM.

`O=C1N(Cc2ccccn2)C[C@H]2CN(C3CCC3)CCN12`: the IC50 was > 30.2 µM. As for `CC(=O)N1CCC(N2CCN3C(=O)N(Cc4ccccn4)C[C@H]3C2)CC1`, the figure is > 30.2 µM; as for `CC(C)CCc1n[nH]c(C(=O)O)c1Cl`, > 50.1 µM. Consider `CN(Cc1ccccc1)C(=O)Cn1nc(N2CCOCC2)ccc1=O`, for which the IC50 was > 30.2 µM. As for `Cc1cc(C)nc(N2CCCC(C(=O)Nc3n[nH]c(C(C)C)n3)C2)n1` (stereo not given), the figure is > 30.2 µM. As for `Cc1cc(C)nc(N2CCC(C(=O)Nc3ncc[nH]3)CC2)n1`, the figure is > 30.2 µM.

As to `CS(=O)(=O)N1CCN(C(=O)c2cc(-c3ccc(Br)s3)n[nH]2)CC1`, the IC50 was > 30.2 µM. `O=C(CCNc1ncccn1)Nc1ccc(Cn2cncn2)cc1`: the IC50 was > 30.2 µM.

As to `CCN1CCCC1CNC(=O)Cc1c(-c2ccc(Cl)cc2)n[nH]c1C` (stereo not given), the half-maximal inhibitory concentration (IC50) was > 30.2 µM. The figure for `Cc1cc(C)n(-c2cccc(C(=O)Nc3n[nH]c(C4CCCO4)n3)c2)n1` (stereo not given) is > 30.2 µM; for `Cn1cnc2cc(NC(=O)c3n[nH]c4c3CCC4)ccc21` it is > 30.2 µM. Turning to `O=C(NCCc1ccccn1)c1n[nH]c2c1CCC2`, the half-inhibitory concentration (IC50) is > 30.2 µM. The figure for `COc1ccc(CC(=O)Nc2ccc3ncn(C(C)C)c(=O)c3c2)cc1` is > 30.2 µM; for `Cc1cccc(CS(=O)(=O)NCc2nn(C)c3c2COCC3)c1` it is > 30.2 µM; for `CN(Cc1cccnc1)CC1CC12CCN(Cc1nccs1)CC2` (stereo not given) it is > 50.1 µM.

Take `O=S(=O)(c1cccc(F)c1)N1C[C@@H]2COC[C@]2(COCC2CC2)C1`: the IC50 was > 30.2 µM.

Take `COCC1c2nnn(CC3CC3)c2CCN1C(=O)N1CCCC1` (stereo not given): the IC50 is > 30.2 µM. As to `COCC1c2nnn(CC3CC3)c2CCN1C(=O)c1cccn1C` (stereo not given), the half-inhibitory concentration (IC50) was > 30.2 µM. In the case of `Cc1nc(C)n(CC2CN(S(C)(=O)=O)Cc3nccn3C2)n1` (stereo not given), the half-maximal inhibitory concentration (IC50) was > 30.2 µM. In the case of `Cc1noc(C2CCC3(CCN(C(=O)c4ccncn4)CC3)O2)n1` (stereo not given), the IC50 was > 30.2 µM.

Take `Cn1cc(CN2CCCC3(CCN(Cc4ccncc4)C3=O)C2)cn1` (stereo not given): the IC50 was > 30.2 µM.

For the compound `CN1CCN(c2ncc3c(=O)n(Cc4ccco4)ccc3n2)CC1`, the 50% inhibitory concentration (IC50) is > 30.2 µM.

With `CCN1CCCC(O)(CN(C)Cc2ccc(C)o2)C1` (stereo not given), the IC50 is > 30.2 µM.

Take `COc1cccc(CNC(=O)c2cc(C)nc(N3CCCCC3)n2)c1`: the half-inhibitory concentration (IC50) was > 30.2 µM. For the compound `Cc1ccc(S(=O)(=O)Nc2ccc(N3CCSCC3)c(C(=O)O)c2)s1`, the IC50 was > 30.2 µM (2×) and 32.4 µM and 45.1 µM. Consider `Cc1sc(NC(=O)CN(C)CCOc2cccc(F)c2)c(C)c1C`, for which the IC50 was > 30.2 µM. With `CN(CC(C)(CO)CO)C(=O)Nc1cc(Cl)cc(Cl)c1`, the half-inhibitory concentration (IC50) is > 30.2 µM. `CC(NCCCN1CCCC1=O)c1cc(Br)ccc1F` (stereo not given): the IC50 is > 30.2 µM.

Turning to `CC(NCC1(N(C)C)CCOCC1)c1ccc(SC(F)F)cc1` (stereo not given), the IC50 was > 30.2 µM. As for `Cc1c(C(=O)N2CCC2)nnn1-c1ccc2ncccc2c1`, the IC50 is > 30.2 µM.

`CCC(c1ccncc1)N(C)S(C)(=O)=O` (stereo not given): the IC50 was > 30.2 µM. With `COc1ccc(-n2cc(CNC(=O)c3cc[nH]n3)nn2)cc1`, the IC50 was > 30.2 µM. `Cc1nnc2n1CC(CNCc1nc(-c3cccs3)no1)CC2` (stereo not given): the half-maximal inhibitory concentration (IC50) is > 30.2 µM.

Regarding `NC(=O)CN1CCC(NC(=O)COCCOc2ccccc2)CC1`, the IC50 was > 30.2 µM.

On to `CC(C)NC1CCN(CCc2ccc3c(c2)CCO3)CC1`, for which the half-maximal inhibitory concentration (IC50) was > 50.1 µM. As for `CC(C)n1nnnc1-c1ccc(NC(=O)C(C)(C)C#N)cc1F`, the IC50 is > 30.2 µM. The figure for `CCC(CO)Nc1nc(C(F)F)nc2ccccc12` (stereo not given) is > 30.2 µM.

On to `O=C1CN(Cc2occc2C(=O)NCCc2ccc(F)cc2)CCN1`, for which the concentration for half-maximal inhibition (IC50) was > 30.2 µM.

`CC(C)c1noc(C[S+]([O-])CC(=O)Nc2ccc(F)c(F)c2)n1` (stereo not given): the IC50 is > 30.2 µM. As for `CC(C)(CNC(=O)C1(c2ccccc2)CCOCC1)C(=O)O`, the figure is > 30.2 µM; as for `O=C(NCC(O)c1ccsc1)c1sccc1OC(F)F` (stereo not given), > 30.2 µM. As for `O=C(CCNc1ccccc1)NC1CCN(C(=O)C2CCCCC2)CC1`, the figure is > 30.2 µM; as for `COc1ccccc1CC(C)CC(=O)NC(C)C` (stereo not given), > 30.2 µM; as for `CCCS(=O)(=O)NCC(O)c1c(Cl)cccc1Cl` (stereo not given), > 30.2 µM. Consider `CC(C)N(CC(C)(C)O)C(=O)NC1CC1`, for which the IC50 is > 30.2 µM. The figure for `O=C(NCc1ccon1)c1c(F)cc(Br)cc1F` is > 30.2 µM; for `Cc1cccc(NC(=O)NC2CCC3(C2)OCCO3)c1Cl` (stereo not given) it is > 30.2 µM. The figure for `CCc1nc(NS(=O)(=O)c2cccc(F)c2C)no1` is > 30.2 µM. The figure for `CN1CCCC(CNC(=O)N(C)Cc2ccc(Cl)c(F)c2)C1` (stereo not given) is > 30.2 µM; for `CC(C(=O)N1CCCC1)S(=O)(=O)Cc1noc(C(C)(C)C)n1` (stereo not given) it is > 30.2 µM; for `COC(=O)C(C)CN(C)S(=O)(=O)c1c(Br)cc2[nH]c(=O)oc2c1Cl` (stereo not given) it is > 30.2 µM. `CC(c1nc(-c2ccccc2)no1)N1CCc2c(ncn2C2CC2)C1` (stereo not given): the IC50 was > 30.2 µM. The figure for `C1=C(CNC2CCc3ncnn3C2)COc2ccccc21` (stereo not given) is > 30.2 µM; for `Cc1nc(-c2cc(C(=O)O)co2)cs1` it is > 30.2 µM; for `NC(=O)CC1CCN(S(=O)(=O)c2cnn(-c3ccccc3)c2)CC1` it is > 30.2 µM. As to `NC(=O)C1CCN(S(=O)(=O)c2cnn(-c3ccccc3)c2)C1` (stereo not given), the IC50 is > 30.2 µM.

With `CCCc1noc(C(C)N2CCN(CCn3ccccc3=O)CC2)n1` (stereo not given), the IC50 is > 30.2 µM. As for `CC(NC(=O)CSCC(N)=O)c1ccc(Oc2ccccc2)cc1` (stereo not given), the figure is > 30.2 µM; as for `Cc1ccc(CNC(=O)COc2ccc3c(c2)OCC3O)cc1` (stereo not given), > 30.2 µM.

As for `CCC(c1ccc(F)cc1F)N1CCN(CCO)CC1` (stereo not given), the half-maximal inhibitory concentration (IC50) is > 30.2 µM. As to `CN1CCOC(CNCC(=O)NCCC2=CCCCC2)C1` (stereo not given), the IC50 is > 30.2 µM. Consider `Cc1cc(NC(=O)C2CCN(c3ncccc3C#N)CC2)no1`, for which the IC50 is > 50.1 µM. As for `CC1CCN(c2ccc(C(=O)N3CCCC3c3ccc[nH]3)cn2)CC1` (stereo not given), the IC50 is > 30.2 µM. The figure for `CC(C)N1CCC(NC(=O)c2cn(-c3ccc(F)cc3)nn2)C1` (stereo not given) is > 30.2 µM; for `CCSCc1csc(-c2ccc(S(C)(=O)=O)cc2)n1` it is > 30.2 µM. The figure for `COc1ccccc1OCC(=O)NS(=O)(=O)c1cccnc1` is > 30.2 µM; for `Cc1cnn(Cc2ccc(NC(=O)N3CCCC3)cc2)c1` it is > 30.2 µM; for `CCN(CC)C1CCN(C(=O)NCc2cccc(-n3cccn3)c2)C1` (stereo not given) it is > 30.2 µM. The figure for `COc1c(C2CCCN2CC(=O)Nc2nccs2)c(C)nn1C` (stereo not given) is > 30.2 µM; for `CCn1ccnc1CNCc1ccc(C)cc1OC(C)(C)C` it is > 30.2 µM; for `CC1COCCN1C(=O)Cc1cc(Cl)c2c(c1)OCCO2` (stereo not given) it is > 30.2 µM. Turning to `COCCNC(=O)CCNc1cc(C)nc(-c2ccncc2)n1`, the IC50 was > 30.2 µM. Regarding `COc1ccccc1N1CCN(CC(=O)NC(C)c2ccco2)CC1` (stereo not given), the half-inhibitory concentration (IC50) is > 30.2 µM. Regarding `COC1CCN(CCNC(=O)NC(C)c2ccc(F)c(F)c2)CC1` (stereo not given), the 50% inhibitory concentration (IC50) is > 30.2 µM. As for `O=C(Nc1ccc(-n2cncn2)nc1)N(CC1CCOC1)C1CC1` (stereo not given), the figure is > 30.2 µM; as for `CC(NC(=O)CNC(=O)OC(C)(C)C)c1ccc(Cl)s1` (stereo not given), > 30.2 µM; as for `Cc1cccc(C(=O)NCC2CCS(=O)(=O)C2)n1` (stereo not given), > 30.2 µM. As to `CCc1ncncc1C(=O)NCCNS(=O)(=O)c1ccccc1`, the IC50 is > 50.1 µM. The figure for `CCc1ncncc1C(=O)NCCNS(=O)(=O)c1ccc(C)cc1` is > 30.2 µM; for `Cc1nc(N2CCC(CN3CCCC3)CC2)c2cnn(C)c2n1` it is > 30.2 µM; for `Cc1ccc(C)c(CC(=O)NC2(C#N)CCOCC2)c1` it is > 30.2 µM. The figure for `Cc1cc(C)n(C2CN(CC(=O)N(C)Cc3cnn(C)c3)C2)n1` is > 30.2 µM; for `CC(C)C(NC(=O)NCC1(CO)CC1)c1nnc2n1CCC2` (stereo not given) it is > 30.2 µM; for `O=C(NCC1CC1)[C@H]1C[C@@H]2CN(S(=O)(=O)Cc3ccccc3)C[C@H]1O2` it is > 30.2 µM.

For the compound `NC(=O)N1CCC2(CC1)CN(c1ccsc1)C(=O)CO2`, the 50% inhibitory concentration (IC50) was > 30.2 µM. As for `Cc1cnc(N2CCn3cc(CNC(=O)CC4CC4)nc3C2)nc1`, the half-inhibitory concentration (IC50) is > 30.2 µM.

Regarding `Cc1cc(C(=O)N[C@H](C)c2onc(-c3cccnc3)c2C(=O)O)c(C)o1`, the IC50 was > 30.2 µM. The figure for `NC(Cc1nc(-c2ccccc2)no1)c1ccccc1` (stereo not given) is > 30.2 µM. As for `Cc1csc(CCNCc2cnc3c(c2)c(C)nn3C)n1`, the figure is > 30.2 µM; as for `Cn1cc(N2C(=O)CC[C@@H]3[C@H]2CCN3Cc2nccs2)cn1`, > 30.2 µM; as for `O=C(NCc1ccco1)[C@H]1C[C@@H]2CCN(c3ncccn3)C[C@H]2O1`, > 30.2 µM. As for `CN(C)CC(=O)N1CCC2(CC1)CN(c1ccsc1)C(=O)CO2`, the figure is > 30.2 µM; as for `Cn1nccc1-c1ccc2nc(C3CCN(CC4CC4)CC3)nn2c1`, > 30.2 µM.

Take `CCN1C[C@H]2[C@@H](C1)N(S(=O)(=O)c1cccnc1)CC[C@H]2OC`: the IC50 is > 30.2 µM.
